Data reported in PMC8584447, “Adhesive Antimicrobial Peptides Containing 3,4-Dihydroxy-L-Phenylalanine Residues for Direct One-Step Surface Coating” (International Journal of Molecular Sciences, 2021).
Ends that are not written are not given here.

What was measured:
[1] = test system: E. coli; assay: Antibacterial activity of peptide-coated surfaces (ISO 22196, modified), E. coli; type: cell-based, Escherichia coli
Description: (§1) To coat the designed peptides on a surface, 200 μL of freshly prepared 200 μM peptide solution (10 mM Tris-HCl, pH 8.5) was added into a 24-well PS plate and incubated for 10 min at 37 °C. After coating, the plates were rinsed with deionized water and air-dried. The PS, Ti, and PDMS pieces (1 cm × 1 cm) were coated in the same manner. For the PD-mediated AMP coating, a layer of PD was first coated on a 24-well PS plate by dip coating, as previously described, with minor modifications. Each PS well was treated with 2 mg/mL dopamine solution (10 mM Tris-HCl, pH 8.5) and incubated for approximately 1 h at 37 °C. The PD-coated wells were washed twice with deionized water to remove excess dopamine. To attach the NKC peptide to a PD-coated 24-well PS plate, NKC peptide solution (200 μM) was dispensed into each well, and the plate was incubated at 37 °C for 24 h. The wells with the immobilized peptide were then washed twice with deionized water.
(§2) The bactericidal activities of the AMP-coated surfaces were evaluated following the International Organization for Standardization 22196 standard with slight modifications. Overnight bacterial suspensions were subcultured in fresh LB until the mid-log phase and diluted to 10^6 cells/mL with 500-fold diluted LB. The AMP-coated and uncoated substrates (1 cm × 1 cm) were placed in 24-well plates, and 10 μL of the bacterial suspension was distributed over the substrate surface. The substrates were covered with a piece of polyethylene film (1 cm × 1 cm) and incubated for 2 h (37 °C, relative humidity: >90%). Subsequently, SCDLP broth (990 μL) was added, and viable cells were retrieved and serially diluted. Aliquots (100 μL) of the bacterial suspension were withdrawn and plated for colony counting.

[2] = test system: E. coli ATCC 27325; type: cell-based, Escherichia coli; settings: ATCC 27325, 18 h
Description: The MICs of the designed peptides were measured against the gram-negative bacterium E. coli ATCC 27325 according to the general guidelines of the Clinical and Laboratory Standards Institute, with some modifications based on a study of cationic AMPs. Briefly, a single bacterial colony was cultured in Mueller−Hinton broth (MHB; Sigma–Aldrich) until the mid-log phase (optical density of 0.4–0.6 at 600 nm). The bacterial suspension was diluted with fresh MHB to a concentration of 10^6 colony-forming units (CFU)/mL. Next, two-fold serial dilutions (128 to 1 μM) of the peptides were prepared in MHB and mixed (1:1) with the diluted bacterial culture, resulting in a final peptide concentration ranging from 64 to 0.5 μM and final bacteria concentration of 5 × 10^5 cells/mL. The mixtures were placed into 96-well polypropylene microtiter plates (Corning), with sterile MHB used as a negative control and MHB inoculated with bacterial cells used as growth control. The plates were incubated for 18 h at 37 °C with shaking at 200 rpm. The MIC values were determined as the lowest concentrations at which no bacterial growth was recorded at 600 nm using a microplate reader (Infinite 200 Pro; Tecan, Männedorf, Switzerland).

[3] = test system: HaCaT cells
Description: To evaluate the toxicity of the peptides coated on the substrates towards human skin, the mitochondrial dehydrogenase activity of HaCaT keratinocytes was measured in a modified 3-(4,5-dimethyl-2-thiazolyl)-2,5-diphenyl-2H-tetrazolium bromide (MTT) reduction assay. HaCaT cells were routinely cultured in Dulbecco’s modified Eagle’s medium (DMEM; Lonza, Basel, Switzerland) with 10% fetal bovine serum (Lonza) and 1% penicillin–streptomycin solution (Thermo Fisher Scientific) in humidified 5% CO2 at 37 °C. The cultured cells were washed twice with phosphate-buffered saline (PBS; pH 7.4) and detached by trypsinization. The harvested HaCaT cells were diluted to 5 × 10^4 cells/mL, seeded into 12-well culture plates, and incubated in a humidified incubator with 5% CO2. After incubation, the medium was changed to serum-free DMEM, and uncoated or AMP-coated pieces (PS/Ti/PDMS; 1 cm × 1 cm) were placed upside down on the HaCaT cells. After 24 h, the pieces were removed, and MTT solution in 1 mL of DMEM was added to each well. […] The plate was incubated overnight, and the absorbance was measured at 570 nm using a microplate reader (Tecan Infinite 200 Pro). […] Cell viability was expressed as the percentage of surviving cells on the coated substrates relative to those on the uncoated substrates.

[4] = test system: P. aeruginosa; assay: Antibacterial activity of peptide-coated surfaces (ISO 22196, modified), P. aeruginosa; type: cell-based, Pseudomonas aeruginosa; settings: NKC-DOPA5-coated PS, Ti and PDMS (1 cm × 1 cm), 10 μL of 10^6 cells/mL, 37 °C
Description: as §1
(§3) The bactericidal activities of the AMP-coated surfaces were evaluated following the International Organization for Standardization 22196 standard with slight modifications. Overnight bacterial suspensions were subcultured in fresh LB until the mid-log phase and diluted to 10^6 cells/mL with 500-fold diluted LB. […]

[5] = test system: P. aeruginosa; assay: Bacterial adhesion / biofilm assay (live/dead staining, confocal microscopy), P. aeruginosa; type: cell-based, Pseudomonas aeruginosa; settings: 10^7 cells/mL, 24 h, 37 °C, SYTO9/PI staining
Description: (§4) The viability of bacterial cells adhered to the substrate surface was evaluated using the Live/Dead BacLight Bacterial Viability Kit (Thermo Fisher Scientific) according to the manufacturer’s instructions. Briefly, 200 μL of bacterial suspensions adjusted to 10^7 cells/mL were incubated on uncoated or peptide-coated chambered cover glasses (Thermo Fisher Scientific) at 37 °C for 24 h. After 24 h, planktonic cells were removed, and the surfaces were washed with 0.85% (w/v) NaCl buffer. Cells attached to the surfaces were stained for 15 min in the dark with BacLight stock solution containing two fluorescent nucleic acid stains, SYTO9 and propidium iodide (PI). After staining, the surfaces were washed with 0.85% NaCl solution, and the stained cells were photographed using confocal laser-scanning microscopy (LSM 5 LIVE DuoScan, Carl Zeiss, Jena, Germany) using a 63× objective. The excitation wavelengths were 488 and 561 nm for SYTO9 and PI, respectively.

[6] = test system: E. coli; assay: Bacterial adhesion / biofilm assay (live/dead staining, confocal microscopy), E. coli; type: cell-based, Escherichia coli; settings: 10^7 cells/mL, 24 h, 37 °C, SYTO9/PI staining
Description: as §4

[7] = test system: S. aureus; assay: Bacterial adhesion / biofilm assay (live/dead staining, confocal microscopy), S. aureus; type: cell-based, Staphylococcus aureus; settings: 10^7 cells/mL, 24 h, 37 °C, SYTO9/PI staining
Description: as §4

[8] = test system: E. coli; assay: Stability assessment of surface-coated peptide (antimicrobial activity after storage); type: cell-based, Escherichia coli; settings: for antimicrobial activity after storage: coated PS stored at 25 °C, (Nc−N)/Nc×100, mean ± SD
Description: as §2
To evaluate the stability of the surface-coated peptides, antimicrobial activity was determined as described above after incubating the AMP-coated PS plates for 1, 7, 14, 21, 28, 56, and 84 days at 4 °C and 25 °C and with the formula below: Antimicrobial activity (%)=Nc−N/Nc×100 where Nc and N represent the number of colonies after incubation on the control and AMP-coated substrates, respectively.

[9] = test system: S. aureus; assay: Antibacterial activity of peptide-coated surfaces (ISO 22196, modified), S. aureus; type: cell-based, Staphylococcus aureus; settings: NKC-DOPA5-coated PS, Ti and PDMS (1 cm × 1 cm), 10 μL of 10^6 cells/mL, 37 °C
Description: as §1, §3

[10] = test system: P. aeruginosa; assay: Rat subcutaneous implant infection model; type: in vivo, Sprague–Dawley rats
Description: In vivo antibacterial activity was evaluated using specific pathogen-free Sprague–Dawley male rats (7 weeks old, weighing 200−220 g). All animal experiments were approved by the Animal Ethics Committee of KNOTUS, Incheon, Korea (approval no. 18-KE-383) and performed following the guidelines for the care and use of laboratory animals of KNOTUS. All rats were housed in individually ventilated cages and acclimated for 7 days before surgery. For implantation, the rats were anesthetized by intramuscular injection of Zoletil® (30 mg/kg; Virbac, Carros, France), and the dorsum was shaved and disinfected with 70% isopropyl alcohol. Approximately 1 cm wide incisions were made parallel to the spine and extended to the subdermal fascia. For the control group, uncoated Ti screws or PDMS slides were implanted into the left flank, whereas AMP-coated implants were inserted into the right flank. The wounds were sutured, and the implant site was marked on the skin. Setting the skin mark as a guide, 100 μL of a p. aeruginosa inoculum containing 2.5 × 10^8 cells/mL was injected subcutaneously. The rats were euthanized by CO2 asphyxia at 5 days after the bacterial challenge. The implants were removed using sterile tools and placed in sterile tubes containing 1 mL of PBS. For the detachment of bacteria from the implant materials, the tubes were sonicated for 15 min, and 10-fold serial dilutions of the bacterial solution were plated on LB agar for CFU determination. The tissues surrounding the implants were carefully removed, separately immersed in 1 mL of PBS, and homogenized. Bacteria in the tissues were quantified by serial dilution. For histological examination, the tissues surrounding the implants were formaldehyde-fixed, paraffin-embedded, and then stained with hematoxylin and eosin [26].

[11] = peptide-coated 24-well PS, 10^6 cells/mL E. coli, 2 h, colony counting
[12] = coated PDMS implants, 5 days post-inoculation

## APKAMKLLKKLLKLQKKGI-NH2 (C-terminus assumed) [NKC, reference compound]
[1]; NKC attached via polydopamine (PD) to PS plate, E. coli, 2 h
  reduction of the cell count: approximately 4.2 log
[2]
  MIC: 1 µM

## APKAMKLLKKLLKLQKKGIGGGGSGGGGSY [NKC-DOPA1, NKC with glycine–serine linker and 1 DOPA moiety at the C-terminus]
[1]; [11]
  bacterial growth on coated surface (in words): hardly inhibited bacterial growth

## APKAMKLLKKLLKLQKKGIGGGGSGGGGSYYY [NKC-DOPA3, NKC with glycine–serine linker and 3 DOPA moieties at the C-terminus]
[1]; [11]
  log reduction in the cell count: 5.7 log

## APKAMKLLKKLLKLQKKGIGGGGSGGGGSYYYYY [NKC-DOPA5, NKC with glycine–serine linker and 5 DOPA moieties at the C-terminus]
[1]; NKC-DOPA5-coated PS, Ti and PDMS (1 cm × 1 cm), 10 μL of 10^6 cells/mL, 37 °C
  number of viable bacterial cells after 2 h: zero
[1]; [11]
  bacterial growth on coated surface (in words): No bacterial growth was observed
[3]
  cell viability: > 90%
[4]
  number of viable bacterial cells after 2 h: zero
[5]
  biofilm formation on coated surface: remarkably inhibited biofilm formation
[6]
  biofilm formation on coated surface: remarkably inhibited biofilm formation
[7]
  biofilm formation on coated surface: remarkably inhibited biofilm formation
[8]; coated PS plate stored at 4 °C for 84 days
  change in antimicrobial activity during storage: no change
[8]; 7 days
  antimicrobial activity after storage: 99.75 ± 0.16%
[8]; 84 days
  antimicrobial activity after storage: 99.17 ± 3.25%
[9]
  number of viable bacterial cells after 2 h: zero
[10]; PDMS implants, 5 days post-inoculation
  decrease in number of bacteria recovered from surrounding tissues vs pristine: approximately 3.8 log CFU/g
[10]; Ti implants, 5 days post-inoculation
  difference in number of bacteria in surrounding tissues, pristine vs coated: 3 log CFU/g
[10]; [12]
  implants from which microorganisms were absent: three of the five implants
  median number of bacteria recovered from surrounding tissues: 0.9 log CFU/g
[10]; coated PDMS implants, five implants, 5 days post-inoculation
  average bacterial count per implant: 0.92 log CFU/mL per implant
[10]; coated PDMS, the other two of five implants, 5 days post-inoculation
  microbial loads of the two colonised implants: 2.0−2.6 log CFU/mL
[10]; coated Ti implants, 5 days post-inoculation
  number of bacteria from tissues surrounding the implants: 2.7 log CFU/g
[10]; coated Ti screw, five implants, 5 days post-inoculation of P. aeruginosa
  microorganisms on implants: no microorganisms were observed
[10]; coated Ti screws and PDMS, 5 days post-inoculation, gross observation
  inflammation of tissues around the implants: without apparent inflammation

## APKAMKLLKKLLKLQKKGIGGGGSGGGGSYYYYYYY [NKC-DOPA7, NKC with glycine–serine linker and 7 DOPA moieties at the C-terminus]
[1]; [11]
  bacterial growth on coated surface (in words): No bacterial growth was observed
